Reference: PubChem BioAssay AID1963445 (Molecular Pharmacology Branch, DTP, NCI, 2024)

Test system: MCF7 complex spheroid growth, % test/control
Test: Anticancer human tumor MCF7 cell line growth inhibition [Asc];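 also: spheroids exposed to compounds for 7 days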;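 as to viability, T/C: 100% = DMSO vehicle control wells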
Conditions: for IC50: curve of first compound; for viability, T/C: stronger effect = lower value
Protocol: Multicellular complex tumor spheroid response to apoptosis pathway targeting inhibitors Alrizomadlin, Pelcitoclax, and Dasminapant in combination with a variety of drugs and investigational agents in selected tumor cell lines
The MDM2 inhibitor alrizomadlin, the Bcl-2/Bcl-xL inhibitor pelcitoclax, and the IAPs inhibitor dasminapant were evaluated both individually and in combination with standard of care and investigational anticancer small molecules within a complex spheroid model of solid tumors. . Complex spheroids include a stromal component modeled by human endothelial cells (HUVEC) and fibroblasts modeled by human mesenchymal stem cells (MSCs). The concentration ranges selected for each drug and investigational agent were based upon clinically achievable concentrations if the clinical Cmax of the agent was known.
Compounds. The drugs and investigational agents: alrizomadlin (APG-115; NSC831270), pelcitoclax (APG-1252; NSC835773), dasminapant (APG-1387;NSC834197), TAK-243 (NSC785004), copanlisib (NSC809693), olaparib (NSC753686), talazoparib (NSC767125), cobimetinib (NSC 768068), eltanexor (KPT-8602, NSC 794443), abemaciclib (NSC 768073), sotorasib (NSC818433), adagrasib (NSC 831453), MRTX-1133 (NSC 836407), Iadademestat (ORY1001, NSC 806812), and RMC-4630 (NSC839698), were obtained from the NCI Developmental Therapeutics Program Chemical Repository. The FDA-approved anticancer drug set is available from the Developmental Therapeutics Program at https://dtp.cancer.gov/organization/dscb/obtaining/available plates.htm. […] The stock solutions were prepared in dimethyl sulfoxide (DMSO, Sigma-Aldrich, St. Louis, MO, cat. D2650) at 800-fold the tested concentration and stored at -70 degrees C prior to their use. All drugs and investigational agents were tested over a range starting from a high concentration at or near the clinical Cmax and decreasing in half-log increments. If the clinical Cmax for an agent had not been determined, the highest concentration tested was 10 microM.
The patient-derived cancer (PDC) cell lines include five colon adenocarcinomas: 186277-243-T-J2-PDC, 616215-338-R-J1-PDC, 439559-082-T-J2-PDC, 463943-066-T-J2-PDC, and 519858-162-T-J1-PDC; three pancreatic carcinomas: 323965-272-R-J2-PDC, 521955-158-R6-J3-PDC, and 521955-158-R2-J5-PDC; two uterine sarcomas: 327498-152-R-J2-PDC and 993429-296-R-J1-PDC; two rhabdomyosarcomas: 755483-174-R-J1-PDC and 772245-204-R-J1-PDC; two soft tissue sarcomas: 126254-015-R-J1-PDC and 494315-158-R-J1-PDC; two malignant fibrous histiocytomas: 317291-083-R-J1-PDC and 596521-263-R-J1-PDC; two breast carcinomas: 171881-019-R-J1-PDC and 885512-296-R-J2-PDC; and one ovarian carcinoma: 6556581-035-R-J-PDC were obtained from the NCI PDMR, (https://pdmr.cancer.gov). The established cell lines HSSY-2 synovial sarcoma (RRID:CVCL 8719), SYO-1 synovial sarcoma (RRID:CVCL_7146), MPNST malignant peripheral neural sheath tumor were obtained from the Sloan Kettering Institute. The following established cell lines were purchased from the American Type Culture Collection (ATCC, Manassas, VA), Sor the received from the NCI repository:, PANC-1 pancreatic carcinoma (CRL-1469, RRID:CVCL_0480), OVCAR-5 ovarian carcinoma (RRID:CVCL_1628), OVCAR-8 ovarian carcinoma (RRID:CVCL_1629), , MCF-7 breast carcinoma (CRL-12584, RRID:CVCL_0031), MDA-MB-231 breast carcinoma (CRL-12532, RRID:CVCL_0062), NCI-H1876 small cell lung carcinoma (CRL-5902, RRID:CVCL_1503), NCI-H510A small cell lung carcinoma (HTB-184, RRID:CVCL_1565), NCI-H1417 (CRL-5869, RRID:CVCL_1469), and NCI-H196 small cell lung carcinoma (CRL-5823, RRID:CVCL_1509). Dr. Peter Houghton (Greehey Children's Cancer Research Institute, University of Texas Health Science Center, San Antonio, TX) provided Rh-18 rhabdomyosarcoma (RRID:CVCL_1659). Pooled donor human umbilical vein endothelial cells (HUVEC, Lonza, cat. CC-2519) and human mesenchymal stem cells (hMSC, Lonza, cat. PT-2501) were purchased from Lonza (Walkersville, MD).
Cell Culture. […]

Q: Which IC50 (second compound 0.0316 µM) does the source give for `CCN1C(C(=O)NC23CCC(C(=O)O)(CC2)CC3)C(c2cccc(Cl)c2F)C2(C(=O)Nc3cc(Cl)ccc32)C12CCCCC2` (configuration not stated) + Cc1c(S(C)(=O)=O)c(-c2cc(F)cc(N3CCN(c4ccc(NS(=O)(=O)c5ccc(NC(CCN6CCC(C(=O)OCCCP(=O)(O)O)CC6)CSc6ccccc6)c(S(=O)(=O)C(F)(F)F)c5)cc4)CC3)c2)c(-c2ccc(Cl)cc2)n1C(C)C here?
A: Its IC50 is 134 nM.

Q: And the IC50 (second compound 0.1 µM)?
A: Its IC50 is 110 nM.

Q: And the IC50 (second compound 0.316 µM)?
A: Its IC50 is 90 nM.

Q: What about the IC50 (second compound 1 µM) of the same compound?
A: Its IC50 is 82 nM.

Q: What about the IC50 (second compound 3.16 µM) of the same compound?
A: Its IC50 is 60.3 nM.

Q: And the IC50 (second compound 10 µM)?
A: The IC50 was 73.5 nM.

Q: And the viability, T/C (second compound 0.0316 µM, first compound 0.00949 µM)?
A: Its viability, T/C is 96.9%.

Q: And the viability, T/C (second compound 0.0316 µM, first compound 0.03 µM)?
A: The viability, T/C was 97.5%.

Q: And the viability, T/C (second compound 0.0316 µM, first compound 0.0949 µM)?
A: Its viability, T/C is 48.9%.

Q: And the viability, T/C (second compound 0.0316 µM, first compound 0.3 µM)?
A: The viability, T/C was 38.3%.

Q: And the viability, T/C (second compound 0.0316 µM, first compound 0.949 µM)?
A: The viability, T/C was 22.7%.

Q: And the viability, T/C (second compound 0.0316 µM, first compound 3 µM)?
A: The viability, T/C was 12.1%.

Q: And the viability, T/C (second compound 0.1 µM, first compound 0.00949 µM)?
A: The viability, T/C was 108%.

Q: What about the viability, T/C (second compound 0.1 µM, first compound 0.03 µM) of the same compound?
A: The viability, T/C was 93.7%.

Q: What about the viability, T/C (second compound 0.1 µM, first compound 0.0949 µM) of the same compound?
A: The viability, T/C was 46%.

Q: What about the viability, T/C (second compound 0.1 µM, first compound 0.3 µM) of the same compound?
A: The viability, T/C was 34.5%.

Q: And the viability, T/C (second compound 0.1 µM, first compound 0.949 µM)?
A: Its viability, T/C is 15.2%.

Q: What about the viability, T/C (second compound 0.1 µM, first compound 3 µM) of the same compound?
A: The viability, T/C was 11.4%.

Q: What about the viability, T/C (second compound 0.316 µM, first compound 0.00949 µM) of the same compound?
A: Its viability, T/C is 95.2%.

Q: What about the viability, T/C (second compound 0.316 µM, first compound 0.03 µM) of the same compound?
A: Its viability, T/C is 79.6%.

Q: What about the viability, T/C (second compound 0.316 µM, first compound 0.0949 µM) of the same compound?
A: The viability, T/C was 45%.

Q: What about the viability, T/C (second compound 0.316 µM, first compound 0.3 µM) of the same compound?
A: The viability, T/C was 28.9%.

Q: And the viability, T/C (second compound 0.316 µM, first compound 0.949 µM)?
A: The viability, T/C was 15%.

Q: And the viability, T/C (second compound 0.316 µM, first compound 3 µM)?
A: Its viability, T/C is 9.79%.

Q: What about the viability, T/C (second compound 1 µM, first compound 0.00949 µM) of the same compound?
A: The viability, T/C was 91.9%.

Q: And the viability, T/C (second compound 1 µM, first compound 0.03 µM)?
A: Its viability, T/C is 74.4%.

Q: What about the viability, T/C (second compound 1 µM, first compound 0.0949 µM) of the same compound?
A: Its viability, T/C is 42.5%.

Q: What about the viability, T/C (second compound 1 µM, first compound 0.3 µM) of the same compound?
A: The viability, T/C was 33.4%.

Q: What about the viability, T/C (second compound 1 µM, first compound 0.949 µM) of the same compound?
A: The viability, T/C was 11.6%.

Q: What about the viability, T/C (second compound 1 µM, first compound 3 µM) of the same compound?
A: Its viability, T/C is 14.9%.

Q: What about the viability, T/C (second compound 3.16 µM, first compound 0.00949 µM) of the same compound?
A: Its viability, T/C is 97.9%.

Q: And the viability, T/C (second compound 3.16 µM, first compound 0.03 µM)?
A: The viability, T/C was 63.8%.

Q: What about the viability, T/C (second compound 3.16 µM, first compound 0.0949 µM) of the same compound?
A: Its viability, T/C is 44.2%.

Q: What about the viability, T/C (second compound 3.16 µM, first compound 0.3 µM) of the same compound?
A: The viability, T/C was 18.8%.

Q: What about the viability, T/C (second compound 3.16 µM, first compound 0.949 µM) of the same compound?
A: Its viability, T/C is 12.1%.

Q: And the viability, T/C (second compound 3.16 µM, first compound 3 µM)?
A: Its viability, T/C is 11.5%.

Q: What about the viability, T/C (second compound 10 µM, first compound 0.00949 µM) of the same compound?
A: The viability, T/C was 188%.

Q: What about the viability, T/C (second compound 10 µM, first compound 0.03 µM) of the same compound?
A: Its viability, T/C is 153%.

Q: And the viability, T/C (second compound 10 µM, first compound 0.0949 µM)?
A: Its viability, T/C is 30.6%.

Q: And the viability, T/C (second compound 10 µM, first compound 0.3 µM)?
A: The viability, T/C was 27.4%.

Q: What about the viability, T/C (second compound 10 µM, first compound 0.949 µM) of the same compound?
A: The viability, T/C was 12.2%.

Q: What about the viability, T/C (second compound 10 µM, first compound 3 µM) of the same compound?
A: Its viability, T/C is 12.3%.
